Results: patent US10633388B2, “Pyrazolopyrimidone derivatives and methods of use thereof” (Shanghai Hengrui Pharmaceutical Co., Ltd., priority 2013, dated 2020)

Legend:
[1] = women with endometriosis, 150 or 250 mg qd, vs leuprorelin depot 3.75 mg sc monthly or placebo; cited from earlier work
[2] = Rat pharmacokinetics assay; assay type: in vivo; details: both sexes, Sprague-Dawley, plasma, SD rats, oral 10 mg/kg vs i.v. 5 mg/kg, read-out: Oral Bioavailability F
Procedure: Sprague-Dawley (SD) rats were used as test animals. The plasma concentrations at various times were determined by LC/MS/MS after intragastric administration of compounds of Example 2, Example 3, Example 5, Example 9, Example 10, Example 11, and Example 13, and intravenous administration of the compound of Example 11 to the rats. The pharmacokinetic behavior of the present compounds in rats was studied, and the pharmacokinetic features were evaluated.
Thirty-two (32) healthy adult SD rats (half female and half male) were evenly designated into 8 groups (4 for each group). The animals were purchased from Shanghai Super B&K Laboratory Animal Corp. Ltd (laboratory animal production Certificate No. SCXK (HU)2008-0016).
An appropriate amount of sample was weighed, and added with 0.5% CMC-Na to form a 1 mg/ml suspension upon ultrasonic treatment.
Appropriate amounts of drugs were weighed, and dissolved with 0.5 ml DMSO and 0.5 ml of Tween 80. Saline solution was added to the final volume. […]
The content of the test compound in the plasma of rats after administration of the compound by oral gavage was determined by LC/MS/MS.

[3] = Rabbit pharmacokinetics assay; assay type: in vivo, New Zealand rabbits; details: rabbits
Procedure: (§1) Rabbits were used as test animals. The plasma concentrations at various times were determined by LC/MS/MS after intragastric administration of the compound of Example 11, and intravenous administration of the compound of Example 11 to rabbits. The pharmacokinetic behavior of the present compound in rabbits was studied, and the pharmacokinetic features were evaluated.
Six (6) healthy New Zealand Rabbits (female) were evenly designated into 2 groups. The animals were purchased from Jie Sijie Corp. Ltd.
An appropriate amount of sample was weighed, and added with 0.5% CMC-Na to form […] suspension upon ultrasonic treatment.
Appropriate amounts of drugs were weighed, and dissolved with 1 ml DMSO and 1 ml of Tween 80. Saline solution was added to the final volume. […]
0.2 ml of blood was sampled before and 5 minutes, 0.25, 0.5, 1, 2, 4, 8, 11, 24 hours after intravenous administration, collected in a heparinized test tube, and centrifuged at 3500 rpm for 10 minutes to separate the plasma, which was stored at −20° C. […] The content of the test compound in the plasma of rabbits after administration of the compound by oral gavage and intravenous injection was determined by LC/MS/MS.

monkey GnRHr = monkey GnRHr (Macaca fascicularis, UniProt A0A2K5WH82); test: Monkey GnRHr inhibitory activity assay, Fluo-4 calcium signal in stably transfected CHO cells; assay type: cell-based; details: GnRH polypeptide stimulation, read-out: IC50, inhibition of the activity of Monkey GnRHr
Procedure: This assay was used to determine the inhibition effect of the present compounds on the activity of monkey GnRHr protein expressed by monkey GnRHr/CHO stably transfected cell lines.
A mammalian expression vector containing the monkey GnRHr gene was transferred into CHO cells by adding Lipofectamine®LTX reagent containing Plus™. Antibiotics were added the next day for screening to pick out the monoclonal cell lines.
The monkey GnRHr/CHO stably transfected cell lines were inoculated in 96-well plates with an inoculation density of 25,000 cells/well. The culture medium was removed the next day, and loading buffer containing Fluo-4 dye was added to the plate ([…]) and incubated for 30 minutes at 37° C. The plate was moved to room temperature and equilibrated for 10 minutes. Each compound was diluted with DMSO to seven concentration gradients of 100 μM, 10 μM, 1 μM, 0.1 μM, 0.01 μM, 0.001 μM, 0.0001 μM. […] After automated addition of 50 μL of GnRH polypeptide stimulant solution, the value was immediately detected at 494/516 […] by a microplate reader (flexstation 3). IC50 values of the compounds were calculated by software from different fluorescence signals at various corresponding concentrations.
The inhibitory activity of the present compounds on monkey GnRHr was determined by the above assay, and IC50 values are shown in Table 1.

ectopic endometrium = test: In vivo pharmacodynamics test in rabbit endometriosis model; design: species or system New Zealand rabbits
Source text: Fifteen (15) healthy New Zealand rabbits (female) were evenly designated into 3 groups.
Rabbits were adaptive fed and quarantined for seven days, and subcutaneously injected with 30 g/kg of estradiol benzoate once daily for two days before surgery. When the model was established, rabbits were anesthetized with 3% sodium pentobarbital, and laparotomized sterilely. Then, one side of the uterus was separated and ligated with the uterine mesorectum vessel. Then, a section of the uterus was cut off and put into a warm saline dish, and then dissected longitudinally and the myometrium and endometrium were separated. A section of endometrium (about 0.5 cm by 0.5 cm) was seamed to the abdominal wall rich in blood vessels with the intimal surface facing toward the abdominal cavity. Three weeks after endometrium planting, the rabbits were laparotomized to check graft intimal size. […] Each group was administered by oral gavage once a day in a volume of 5 ml/kg, continuously for 28 days after successful modeling. Ultimately, the rabbit was weighed and the volume of ectopic endometrium was measured to evaluate the effect of the present compound on the endometrial activity.

[4] = Seven-day toxicokinetic evaluation in rats; assay type: in vivo, SD rats
Procedure: SD rats were used as test animals. The plasma concentration at various times was determined by LC/MS/MS after administration of the compound of Example 11 (SHR147280) by oral gavage for 7 days. The compound toxicity in rodents was preliminarily assessed according to the potential toxicity reaction and severity level of the body.
Twenty-four (24) healthy adult SD rats (half female and half male) were evenly designated into 4 groups (6 for each group). The animals were purchased from Shanghai SLAC Laboratory Animal Corp. Ltd (laboratory animal production Certificate No. SCXK (HU) 2012-0002).
An appropriate amount of sample was accurately weighed, and added with some 0.5% CMC-Na to form an uniform suspension upon ultrasonicator grinding treatment, and then diluted to the final volume. The test sample solutions on day 1 and day 7 were kept for the determination of administration concentration of toxicokinetics.
Repeat oral doses were 80, 240, and 720 mg/kg, and administration concentrations were 8, 24, and 72 mg/ml respectively. The dosing volume was 10 ml/kg once daily for 7 days.
The blood was sampled on day 1 and day 7 after administration with sampling time before, and 1, 2, 4, 8 and 24 hours after oral administration on day 1, as well as before, and 1, 2, 4, 8, 24 and 48 hours after oral administration on day 7. The blood sample was collected in a heparinized test tube, and centrifuged to separate the plasma, which was stored at −20° C. The content of the test compound in the plasma of rats after administration of the compound by oral gavage was determined by LC/MS/MS.

[5] = Beagle pharmacokinetics assay; assay type: in vivo; details: beagles
Procedure: as §1, with “Beagles” for “Rabbits”, “beagles.” for “rabbits.”, “beagles” for “rabbits”
Eight (8) healthy beagles (half female and half male) were evenly designated into 2 groups. The animals were purchased from SuzhouXishan Zhongke Laboratory Animal Corp. Ltd.
An appropriate amount of sample was weighed, and added with 0.5% CMC-Na to form a 1.0 mg/ml suspension upon ultrasonic treatment;
Appropriate amounts of drugs were weighed, and dissolved with 5 ml DMSO and 5 ml of Tween 80. Saline solution was added to the final volume. […]
1.0 ml of blood was sampled from the foreleg vein before, and 0.25, 0.5, 1, 2, 4, 6, 8, 12, and 24 hours after oral administration, collected in a heparinized test tube, and centrifuged at 3500 rpm for 10 minutes to separate the plasma, which was stored at −20° C. […] The content of the test compound in the plasma of beagles after administration of the compound by oral gavage and intravenous injection was determined by LC/MS/MS.

monkey GnRHr, sequence (A0A2K5WH82 1-328): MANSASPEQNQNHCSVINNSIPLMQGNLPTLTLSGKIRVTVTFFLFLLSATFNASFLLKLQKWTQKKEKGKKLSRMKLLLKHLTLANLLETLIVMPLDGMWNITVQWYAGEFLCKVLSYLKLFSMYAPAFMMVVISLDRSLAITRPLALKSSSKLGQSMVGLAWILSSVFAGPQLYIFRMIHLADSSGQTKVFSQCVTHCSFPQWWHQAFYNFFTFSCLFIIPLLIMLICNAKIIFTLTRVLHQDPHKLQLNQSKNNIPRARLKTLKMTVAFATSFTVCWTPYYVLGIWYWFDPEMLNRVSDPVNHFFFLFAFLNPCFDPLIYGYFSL

COc1cccc(-c2c(C)n(Cc3c(F)cccc3C(F)(F)F)c(=O)n(C[C@H](NCCCC(=O)O)c3ccccc3)c2=O)c1F [elagolix, Elagolix]
serum estrogen level [1]: lower than that of the leuprorelin treatment group and placebo group

CONC(=O)Nc1ccc(-n2nc3c(c2CN(C)C)c(=O)n(-c2ccc(OC)nn2)c(=O)n3Cc2c(F)cccc2F)cc1 [Example 11, 1-(4-(7-(2,6-difluorobenzyl)-3-((dimethylamino)methyl)-5-(6-methoxypyridazin-3-yl)-4,6-dioxo-4,5,6,7-tetrahydro-2H-pyrazolo[3,4-d]pyrimidin-2-yl)phenyl)-3-methoxyurea]
bioavailability [2]: 76.6% | bioavailability ([3]; female, New Zealand, rabbit, plasma, oral 30 mg/kg vs intravenous injection 5 mg/kg, read-out: Oral Bioavailability F): 92.9% | Apparent volume of distribution Vz/F ([3]; oral 30 mg/kg): 10.719 ± 3.862 L/kg | IC50 (monkey GnRHr): 78.6 nM | inhibition for the ectopic endometrial volume (ectopic endometrium; 10 mg/kg oral once daily for 4 weeks): not obvious | growth of ectopic endometrium (ectopic endometrium; 30 mg/kg oral once daily for 4 weeks, vs 0.5% CMC-Na control): significantly inhibited | Death ([4]; both, SD, rat, in vivo, po, 720 mg/kg, 7 days): died on day 7 before dosing | lethal dose ([4]; both, SD, rat, in vivo, po, 7 days): 720 mg/kg | MRT0-∞ ([4]; female, SD, rat, in vivo, po, 240 mg/kg): 9.63 h | safety window: NOAEL dose ratio (toxicological pharmacokinetic dose/pharmacodynamic dose) ([4]; rat 240 mg/kg / rabbit 30 mg/kg, preliminary evaluation): 240/30 = 8 | urine indexes ([4]; rat, in vivo): no regularly abnormal changes | Blood biochemistry: ALB (albumin) and ALP (alkaline phosphatase) ([4]; rat, in vivo, 720 mg/kg): significantly decreased | Blood biochemistry: ALT (alanine aminotransferase) ([4]; rat, in vivo, 720 mg/kg): no statistical differences | Blood biochemistry: BUN, CHOL, CREA, TBIL, TP and AST ([4]; rat, in vivo, 720 mg/kg): significantly increased | Hematology: WBC, Neut, Lymph, EO and RET ([4]; rat, in vivo, 720 mg/kg): significantly decreased | Relative organ coefficient of the thymus and spleen ([4]; rat, in vivo, 720 mg/kg): significantly reduced | absolute wet weight of the adrenal gland ([4]; rat, in vivo, 720 mg/kg): significantly increased | absolute wet weight of the thymus, heart, lung and spleen ([4]; rat, in vivo, 720 mg/kg): significantly decreased | food intake ([4]; rat, in vivo, 720 mg/kg): significantly reduced | relative organ coefficient of the brain, liver, lung, kidney, and adrenal gland ([4]; rat, in vivo, 720 mg/kg): significantly increased | potential toxic target organs ([4]; rat, in vivo, po): marrow hematopoietic system, thymus, heart, liver, lung, spleen, adrenal gland, ovary, and digestion system | Clearance rate CL/F ([5]; oral 5 mg/kg): 14.7 ± 4.2 mL/min/kg | bioavailability ([5]; both sexes, beagle, dog, plasma, oral 5 mg/kg vs i.v. 2 mg/kg, read-out: Oral Bioavailability F): 104%

CNC(=O)Nc1ccc(-n2nc3c(c2CN(C)C)c(=O)n(-c2ccc(OC)nn2)c(=O)n3Cc2c(F)cccc2F)cc1 [Example 9, 1-(4-(7-(2,6-difluorobenzyl)-3-((dimethylamino)methyl)-5-(6-methoxypyridazin-3-yl)-4,6-dioxo-4,5,6,7-tetrahydro-2H-pyrazolo[3,4-d]pyrimidin-2-yl)phenyl)-3-methylurea]
IC50 (monkey GnRHr): 23.2 nM
